Measured values reported in patent US9499493B2, “2,4-pyrimidinediamine compounds and their uses” (Rigel Pharmaceuticals, Inc., priority 2002, dated 2016).

Experiments:
[1] = tested on: cultured human mast cells (CHMC); experiment: CHMC low cell density IgE activation: tryptase assay; format: cell-based; settings: anti-IgE
Outline: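 Low-density CHMC assay: donor-adjusted 1000-1500 cells/well, MT buffer, 1 hr 37° C preincubation; anti-IgE stimulus 30 min 37° C versus MT-only controls; supernatant tryptase by substrate, 30 min RT.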

[2] = tested on: cultured human mast cells (CHMC); experiment: CHMC low cell density ionomycin activation: tryptase assay; format: cell-based

Question: With `CNC(=O)COc1cc(Nc2ncc(F)c(Nc3ccc4c(c3)OCCO4)n2)ccc1OC` [R926828, N4-(3,4-Ethylenedioxyphenyl)-5-fluoro-N2-[4-methoxy-3-(N-methylamino)carbonylmethyleneoxyphenyl]-2,4-pyrimidinediamine] as the compound, how does the IC50 [1] read?
Answer: Its IC50 is 306 nM.

Question: What about the IC50 [2] of the same compound?
Answer: Its IC50 is greater than 10000 nM.

Question: For `CNC(=O)COc1cc(Nc2ncc(F)c(Nc3cccc(O)c3)n2)ccc1OC` [R926829, 5-Fluoro-N4-(3-hydroxyphenyl)-N2-[4-methoxy-3-(N-methylamino)carbonylmethyleneoxyphenyl]-2,4-pyrimidinediamine], which IC50 [1] is on record?
Answer: The IC50 was 688 nM.

Question: What about the IC50 [2] of the same compound?
Answer: Its IC50 is greater than 10000 nM.

Question: With `CNC(=O)COc1cccc(Nc2ncc(F)c(Nc3cccc(Cl)c3)n2)c1` [R926832, N4-(3-Chlorophenyl)-5-fluoro-N2-[3-(N-methylamino)carbonylmethyleneoxyphenyl]-2,4-pyrimidinediamine] as the compound, how does the IC50 [1] read?
Answer: The IC50 was 365 nM.

Question: What about the IC50 [2] of the same compound?
Answer: The IC50 was greater than 10000 nM.

Question: `CNC(=O)COc1cccc(Nc2ncc(F)c(Nc3cc(OC)cc(C(F)(F)F)c3)n2)c1` [R926833, 5-Fluoro-N4-(3-methoxy-5-trifluoromethylphenyl)-N2-[3-(N-methylamino)carbonylmethyleneoxyphenyl]-2,4-pyrimidinediamine] was tested. Which IC50 [1] did it give?
Answer: Its IC50 is 1130 nM.

Question: What about the IC50 [2] of the same compound?
Answer: Its IC50 is greater than 10000 nM.

Question: `CNC(=O)COc1cccc(Nc2ncc(F)c(Nc3ccc(OC)c(O)c3)n2)c1` [R926834, 5-Fluoro-N4-(3-hydroxy-4-methoxyphenyl)-N2-[3-(N-methylamino)carbonylmethyleneoxyphenyl]-2,4-pyrimidinediamine] was tested. Which IC50 [1] did it give?
Answer: The IC50 was 145 nM.

Question: And the IC50 [2]?
Answer: Its IC50 is greater than 10000 nM.

Question: Which IC50 [1] does the source give for `CNC(=O)COc1cccc(Nc2ncc(F)c(Nc3ccc(OC)c(C(F)(F)F)c3)n2)c1` [R926835, 5-Fluoro-N4-(4-methoxy-3-trifluoromethylphenyl)-N2-[3-(N-methylamino)carbonylmethyleneoxyphenyl]-2,4-pyrimidinediamine] here?
Answer: The IC50 was 296 nM.

Question: And the IC50 [2]?
Answer: Its IC50 is greater than 10000 nM.

Question: Which results are given for `OB(O)c1cccc(Nc2ncc(F)c(Nc3cccc(B(O)O)c3)n2)c1` [R926836, N2,N4-Bis(3-boronylphenyl)-5-fluoro-2,4-pyrimidinediamine]?
Answer: IC50 [1]: 10000 nM; IC50 [2]: > 10000 nM

Question: What does the source list for `OB(O)c1cccc(Nc2ncc(F)c(Nc3ccc4c(c3)OCCO4)n2)c1` [R926837, N2-(3-Boronylphenyl)-N4-(3,4-ethylenedioxyphenyl)-5-fluoro-2,4-pyrimidinediamine]?
Answer: IC50 [1]: 2990 nM; IC50 [2]: > 10000 nM

Question: What does the source list for `CNC(=O)COc1cccc(Nc2ncc(F)c(Nc3ccc(F)c(C(F)(F)F)c3)n2)c1` [R926838, 5-Fluoro-N4-(4-fluoro-3-trifluoromethylphenyl)-N2-[3-(N-methylamino)carbonylmethyleneoxyphenyl]-2,4-pyrimidinediamine]?
Answer: IC50 [1]: 583 nM; IC50 [2]: > 10000 nM

Question: `CNC(=O)COc1cccc(Nc2ncc(F)c(Nc3ccc(C)c(Cl)c3)n2)c1` [R926839, N4-(3-Chloro-4-methylphenyl)-5-fluoro-N2-[3-(N-methylamino)carbonylmethyleneoxyphenyl]-2,4-pyrimidinediamine] was tested. Which IC50 [1] did it give?
Answer: Its IC50 is 161 nM.

Question: And the IC50 [2]?
Answer: The IC50 was greater than 10000 nM.

Question: Which results are given for `CNC(=O)COc1cccc(Nc2ncc(F)c(Nc3cc(C)ccc3Cl)n2)c1` [R926840, N4-(2-Chloro-5-methylphenyl)-5-fluoro-N2-[3-(N-methylamino)carbonylmethyleneoxyphenyl]-2,4-pyrimidinediamine]?
Answer: IC50 [1]: 1100 nM; IC50 [2]: > 10000 nM

Question: For `Oc1cccc(Nc2nc(Nc3ccc(C(F)(F)F)c(Cl)c3)ncc2F)c1` [R926844, N2-(3-Chloro-4-trifluoromethylphenyl)-5-fluoro-N4-(3-hydroxyphenyl)-2,4-pyrimidinedimine], which IC50 [1] is on record?
Answer: Its IC50 is 1100 nM.

Question: What about the IC50 [2] of the same compound?
Answer: Its IC50 is greater than 10000 nM.

Question: How did the IC50 [1] turn out when `Oc1cccc(Nc2nc(Nc3cc(Br)cc(C(F)(F)F)c3)ncc2F)c1` [R926846, N2-(3-Bromo-5-trifluorophenyl)-5-fluoro-N4-(3-hydroxyphenyl)-2,4-pyrimidinediamine] was run?
Answer: Its IC50 is 860 nM.

Question: And the IC50 [2]?
Answer: The IC50 was 6260 nM.

Question: What does the source list for `NC(=O)Cn1c(=O)oc2ccc(Nc3ncc(F)c(Nc4ccc5c(c4)OCCO5)n3)cc21` [R926847, N2-[5-(N-Aminocarbonylmethylene-2-oxo-1,3-oxazol-3(2H)-yl)phenyl]-N4-(3,4-ethylenedioxyphenyl)-5-fluoro-2,4-pyrimidinediamine]?
Answer: IC50 [1]: 1480 nM; IC50 [2]: 6260 nM

Question: For `CNC(=O)COc1cccc(Nc2ncc(F)c(Nc3cccc(-c4nnn[nH]4)c3)n2)c1` [R926855, 5-Fluoro-N2-[3-(N-methylamino)carbonylmethyleneoxyphenyl]-N4-[3-(tetrazol-5-yl)phenyl]-2,4-pyrimidinediamine], which IC50 [1] is on record?
Answer: The IC50 was greater than 10000 nM.

Question: What about the IC50 [2] of the same compound?
Answer: The IC50 was greater than 10000 nM.

Question: Which results are given for `CNC(=O)COc1cccc(Nc2ncc(F)c(Nc3cc(C(=O)OC)cc(C(F)(F)F)c3)n2)c1` [R926862, 5-Fluoro-N2-[3-(N-methylamino)carbonylmethyleneoxyphenyl]-N4-(3-methoxycarbonyl-5-trifluoromethylphenyl)-2,4-pyrimidinediamine]?
Answer: IC50 [1]: 774 nM; IC50 [2]: > 10000 nM

Question: How did the IC50 [1] turn out when `CCOC(=O)Cc1nnc(-c2cccc(Nc3ncc(F)c(Nc4cccc(O)c4)n3)c2)o1` [R926874] was run?
Answer: The IC50 was 638 nM.

Question: What about the IC50 [2] of the same compound?
Answer: The IC50 was greater than 10000 nM.

Question: What does the source list for `CNC(=O)COc1cccc(Nc2ncc(F)c(Nc3ccc(OC(F)(F)F)cc3)n2)c1` [R926879, 5-Fluoro-N2-[3-(N-methylamino)carbonylmethyleneoxyphenyl]-N4-[4-trifluoromethoxyphenyl]-2,4-pyrimidinediamine]?
Answer: IC50 [1]: 397 nM; IC50 [2]: > 10000 nM

Question: Which results are given for `CNC(=O)COc1cccc(Nc2ncc(F)c(Nc3ccc(Cl)c(-c4nc5ccccc5s4)c3)n2)c1` [R926900, N4-[3-(Benzothiazol-2-yl)-4-chlorophenyl]-5-fluoro-N2-[3-[(N-methylamino)carbonylmethyleneoxy]phenyl)-2,4-pyrimidinediamine]?
Answer: IC50 [1]: > 10000 nM; IC50 [2]: > 10000 nM

Question: With `CNC(=O)COc1cccc(Nc2ncc(F)c(Nc3ccc(C)c(OC)c3)n2)c1` [R926902, 5-Fluoro-N2-[3-[(N-methylamino)carbonylmethyleneoxy]phenyl]-N4-(3-methoxy-4-methylphenyl)-2,4-pyrimidinediamine] as the compound, how does the IC50 [1] read?
Answer: Its IC50 is 1370 nM.

Question: And the IC50 [2]?
Answer: The IC50 was 4590 nM.

Question: Which results are given for `COC(=O)c1cc2ccc(Nc3ncc(F)c(Nc4cccc(O)c4)n3)cc2[nH]1` [R926903]?
Answer: IC50 [1]: 243 nM; IC50 [2]: > 10000 nM

Question: How did the IC50 [1] turn out when `CNC(=O)COc1cccc(Nc2ncc(F)c(Nc3ccc4c(c3)CNCC4)n2)c1` [R926914, 5-Fluoro-N4-(1,2,3,4-tetrahydroisoquin-7-yl)-N2-[3-[(N-methylamino)carbonylmethyleneoxy]phenyl]-2,4-pyrimidinediamine] was run?
Answer: The IC50 was 1860 nM.

Question: And the IC50 [2]?
Answer: The IC50 was greater than 10000 nM.

Question: How did the IC50 [1] turn out when `CNC(=O)C(C)(C)Oc1cccc(Nc2ncc(F)c(Nc3ccc4c(c3)OCCO4)n2)c1` [R926915, N4-(3,4-Ethylenedioxyphenyl)-5-fluoro-N2-[3-[(N-methylamino)carbonyl-1,1-dimethylmethyleneoxy]phenyl]-2,4-pyrimidinediamine] was run?
Answer: The IC50 was 1710 nM.

Question: And the IC50 [2]?
Answer: Its IC50 is greater than 10000 nM.

Question: `CNC(=O)COc1cccc(Nc2ncc(F)c(Nc3cccc(OC(=O)N(C(=O)NC(C)C)C(C)C)c3)n2)c1` [R926916] was tested. Which IC50 [1] did it give?
Answer: Its IC50 is 1960 nM.

Question: What about the IC50 [2] of the same compound?
Answer: Its IC50 is greater than 10000 nM.

Question: With `C=CCNC(=O)Oc1cccc(Nc2nc(Nc3cccc(OCC(=O)NC)c3)ncc2F)c1` [R926917, 5-Fluoro-N4-[3-[(N-allylamino)carbonyloxy]phenyl]-N2-[3-[(N-methylamino)carbonylmethyleneoxy]phenyl]-2,4-pyrimidinediamine] as the compound, how does the IC50 [1] read?
Answer: The IC50 was 1170 nM.

Question: What about the IC50 [2] of the same compound?
Answer: Its IC50 is greater than 10000 nM.

Question: Which results are given for `CCOC(=O)CNC(=O)Oc1cccc(Nc2nc(Nc3cccc(OCC(=O)NC)c3)ncc2F)c1` [R926918, N4-[3-[[N-(Ethoxycarbonylmethyl)amino]carbonyloxy]phenyl]-5-fluoro-N2-[3-[(N-methylamino)carbonylmethyleneoxy]phenyl]-2,4-pyrimidinediamine]?
Answer: IC50 [1]: 2520 nM; IC50 [2]: > 10000 nM

Question: How did the IC50 [1] turn out when `CCNC(=O)Oc1cccc(Nc2nc(Nc3cccc(OCC(=O)NC)c3)ncc2F)c1` [R926919] was run?
Answer: Its IC50 is 1410 nM.

Question: And the IC50 [2]?
Answer: Its IC50 is greater than 10000 nM.

Question: `CNC(=O)COc1cccc(Nc2ncc(F)c(Nc3ccc(C)c(C(F)(F)F)c3)n2)c1` [R926922, 5-Fluoro-N2-[3-[(N-methylamino)carbonylmethyleneoxy]phenyl]-N4-(4-methyl-3-trifluoromethylphenyl)-2,4-pyrimidinediamine] was tested. Which IC50 [1] did it give?
Answer: Its IC50 is 305 nM.

Question: What about the IC50 [2] of the same compound?
Answer: Its IC50 is greater than 10000 nM.

Question: Which results are given for `CNC(=O)COc1cccc(Nc2ncc(F)c(Nc3ccc(F)c(C)c3)n2)c1` [R926923, 5-Fluoro-N4-(4-fluoro-3-methylphenyl)-N2-[3-[(N-methylamino)carbonylmethyleneoxy]phenyl]-2,4-pyrimidinediamine]?
Answer: IC50 [1]: 346 nM; IC50 [2]: > 10000 nM

Question: How did the IC50 [1] turn out when `COC(=O)COc1cc(Nc2ncc(F)c(Nc3cccc(O)c3)n2)cc(OCC(=O)OC)c1` [R926926, N2-[3,5-Bis(methoxycarbonylmethyleneoxy)phenyl]-5-fluoro-N4-(3-hydroxyphenyl)-2,4-pyrimidinediamine] was run?
Answer: The IC50 was 401 nM.

Question: And the IC50 [2]?
Answer: The IC50 was greater than 10000 nM.

Question: `COC(=O)COc1cc(O)cc(Nc2ncc(F)c(Nc3cccc(O)c3)n2)c1` [R926927, 5-Fluoro-N2-[3-hydroxy-5-(methoxycarbonylmethyleneoxy)phenyl]-N4-(3-hydroxyphenyl)-2,4-pyrimidinediamine] was tested. Which IC50 [1] did it give?
Answer: The IC50 was 348 nM.

Question: What about the IC50 [2] of the same compound?
Answer: The IC50 was greater than 10000 nM.

Question: What does the source list for `CNC(=O)COc1cc(O)cc(Nc2ncc(F)c(Nc3cccc(O)c3)n2)c1` [R926929, 5-Fluoro-N2-[3-hydroxy-5-[(N-methylamino)carbonylmethyleneoxy]phenyl]-N4-(3-hydroxyphenyl)-2,4-pyrimidinediamine]?
Answer: IC50 [1]: 1920 nM; IC50 [2]: > 10000 nM

Question: With `Cc1ccc(-c2ccccc2)cc1Nc1ncc(C)c(Nc2cc(-c3ccccc3)ccc2C)n1` [R935001, N2,N4-Bis[(2-methyl-5-phenyl)phenyl]-5-methyl-2,4-pyrimidinediamine] as the compound, how does the IC50 [1] read?
Answer: Its IC50 is greater than 10000 nM.

Question: What about the IC50 [2] of the same compound?
Answer: The IC50 was greater than 10000 nM.

Question: With `COc1ccc(Nc2ncc(C)c(Nc3ccc(OC)c(-c4ccccc4)c3)n2)cc1-c1ccccc1` [R935002, N2,N4-Bis[(4-methoxy-3-phenyl)phenyl]-5-methyl-2,4-pyrimidinediamine] as the compound, how does the IC50 [1] read?
Answer: The IC50 was greater than 10000 nM.

Question: What about the IC50 [2] of the same compound?
Answer: The IC50 was greater than 10000 nM.

Question: For `COc1cc(-c2ccccc2)c(C)cc1Nc1ncc(C)c(Nc2cc(C)c(-c3ccccc3)cc2OC)n1` [R935003, N2,N4-Bis[(4-phenyl-2-methoxy-5-methyl)phenyl]-5-methyl-2,4-pyrimidinediamine], which IC50 [1] is on record?
Answer: Its IC50 is greater than 10000 nM.

Question: And the IC50 [2]?
Answer: Its IC50 is greater than 10000 nM.
